Reference: US20210228736A1, “PATHOGEN CONTROL COMPOSITIONS AND USES THEREOF” (Flagship Pioneering Innovations VI, LLC, priority 2018, published 2021)

Key:
Pseudomonas aeruginosa = assay: Treatment with DOX-loaded grapefruit PMPs, kinetic OD 600 nm (P. aeruginosa); assay type: cell-based
Procedure: (§1) Bacteria and yeast strains were maintained as indicated by the supplier: E. coli (ATCC, #25922) was grown on Trypticase Soy Agar/broth at 37° C., Pseudomonas aeruginosa (ATCC) was grown on Tryptic soy Agar/broth with […] rifampicin at 37° C., and Saccharomyces cerevisiae (ATCC, #9763) was grown on yeast extract peptone dextrose broth (YPD) and maintained at 30° C. Prior to treatment, fresh one day cultures were grown overnight, the OD (600 nm) was adjusted to 0.1 OD with medium prior to use, and bacteria/yeast were transferred to a 96 well plate for treatment (duplicate samples, 100 μl/well). […] Plates were covered with aluminum foil, and incubated at 37° C. (E. coli, P. aeruginosa), or 30° C. (S. cerevisiae) and agitated at 220 rpm.
(§2) A kinetic Absorbance measurement at 600 nm was performed on a SpectraMax® spectrophotometer to monitor the OD of the cultures at t=0h, t=1h, t=2h, t=3h, t=4.5h, t=16h (E. coli, P. aeruginosa) or t=0.5h, t=1.5h, t=2.5h, t=3.5h, t=4h, t=16h (S. cerevisiae). […] To compare the cytotoxic effect of PMP-DOX treatment on different bacterial and yeast strains, within each treatment group the relative OD was determined as compared to the untreated control (set to 100%).

E. coli = assay: Treatment with DOX-loaded grapefruit PMPs, kinetic OD 600 nm (E. coli); assay type: cell-based, Escherichia coli
Procedure: as §1, §2

Saccharomyces cerevisiae = assay: Treatment with DOX-loaded grapefruit PMPs, kinetic OD 600 nm (S. cerevisiae); assay type: cell-based
Procedure: as §1, §2

## COc1cccc2c1C(=O)c1c(O)c3c(c(O)c1C2=O)C[C@@](O)(C(=O)CO)C[C@@H]3O[C@H]1C[C@H](N)[C@H](O)[C@H](C)O1 [free doxorubicin, doxorubicin]
Pseudomonas aeruginosa
  onset of cytotoxicity compared with PMP-DOX at the same dosages: cytotoxicity is induced earlier than with PMP-DOX delivery
E. coli
  onset of cytotoxicity compared with PMP-DOX at the same dosages: cytotoxicity is induced earlier than with PMP-DOX delivery
Saccharomyces cerevisiae
  onset of cytotoxicity compared with PMP-DOX at the same dosages: cytotoxicity is induced earlier than with PMP-DOX delivery
